Experimental data as given in US20020137929A1, “1 - (3-heterocyclylphenyl) isothiourea, -isourea, -guanidine and -amidine herbicidal agents” (Intellectual Property Department, BASF Aktiengesellschaft, priority 1998, published 2002).

Key:
CASOB (Sicklepod) [1] = assay: Postemergence herbicidal evaluation; assay type: in vivo, Cassia obtusifolia; conditions: postemergence
Summary of the method: (§1)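 Visual 0-9 injury score (stand, vigor, malformation, size, chlorosis, appearance vs untreated) taken four to five weeks post-spray, averaged across repeat tests. Test plants about two weeks old; foliar spray of acetone/water (1:1) with 0.5% surfactant delivering ~0.0156-0.500 kg active/ha.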

CASOB (Sicklepod) [2] = assay: Preemergence herbicidal evaluation; assay type: in vivo, Cassia obtusifolia; conditions: rated 4-5 weeks after treatment
Summary of the method: (§2)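 Seeds were mixed with potting soil and planted on about one inch of soil, then sprayed with test compound in aqueous acetone at about 0.0156 to 0.500 kg per hectare. Plants grew under standard greenhouse care and were visually rated 0-9 against untreated controls 4-5 weeks post-treatment.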

[3] = system: IPOHE (Morningglory, Ivyleaf); assay: Postemergence herbicidal evaluation; assay type: in vivo, Ipomoea hederacea; conditions: postemergence
Summary of the method: as §1

MOOVA (Monochoria) = assay: Preemergence weed control under flooded paddy conditions; assay type: in vivo, Monochoria vaginalis; conditions: rated 3-4 weeks after treatment
Summary of the method: (§3)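 Seeds or propagules sown in silt loam kept flooded 1.5-3 cm; compounds in 50/50 acetone/water pipetted into flood water at about 0.0313 to 0.500 kg/ha. Greenhouse; visual 0-9 rating versus untreated control 3-4 weeks after treatment.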

ABUTH (Velvetleaf) = assay: Preemergence herbicidal evaluation; assay type: in vivo, Abutilon theophrasti; conditions: rated 4-5 weeks after treatment
Summary of the method: as §2

[4] = system: IPOHE (Morningglory, Ivyleaf); assay: Preemergence herbicidal evaluation; assay type: in vivo, Ipomoea hederacea; conditions: rated 4-5 weeks after treatment
Summary of the method: as §2

ECHCG (Barnyardgrass) = assay: Preemergence herbicidal evaluation; assay type: in vivo, Echinochloa crus-galli; conditions: rated 4-5 weeks after treatment
Summary of the method: as §2

ZEAMX (Corn, Field) = assay: Preemergence herbicidal evaluation; assay type: in vivo, Zea mays; conditions: rated 4-5 weeks after treatment
Summary of the method: as §2

[5] = system: GLXMAW (Soybean, Williams); assay: Preemergence herbicidal evaluation; assay type: in vivo, Glycine max, (L.) Merr. cv Williams; conditions: rated 4-5 weeks after treatment
Summary of the method: as §2

[6] = system: SAGPY (Arrowhead (Pygmaea)); assay: Preemergence weed control under flooded paddy conditions; assay type: in vivo, Sagittaria pygmaea; conditions: rated 3-4 weeks after treatment
Summary of the method: as §3

GALAP (Galium) = assay: Postemergence herbicidal evaluation; assay type: in vivo, Galium aparine; conditions: postemergence
Summary of the method: as §1

AMBEL (Ragweed, Common) = assay: Postemergence herbicidal evaluation; assay type: in vivo, Ambrosia artemisifolia; conditions: postemergence
Summary of the method: as §1

[7] = system: TRZAWR (Wheat, Winter, cv Riband); assay: Preemergence herbicidal evaluation; assay type: in vivo, Triticum aestivum; conditions: rated 4-5 weeks after treatment
Summary of the method: as §2

[8] = rate 0.0156 kg/ha, rating scale 0-9
[9] = rate 0.0313 kg/ha, rating scale 0-9
[10] = rate 0.0625 kg/ha, rating scale 0-9
[11] = rate 0.1250 kg/ha, rating scale 0-9
[12] = rate 0.2500 kg/ha, rating scale 0-9

CCOC(=O)CN1C(=O)C(C(=O)OC)SC1=Nc1cc(-n2c(=O)cc(C(F)(F)F)n(C)c2=O)c(F)cc1Cl (stereo not shown) [Compound 128, 5-Carboxy-2-{{2-chloro-5-[3,6-dihydro-3-methyl-2,6-dioxo-4-(trifluoromethyl)-1(2H)-pyrimidinyl]-4-fluorophenyl}imino}-4-oxo-3-thiazolidineacetic acid, 3-ethyl methyl ester]
Herbicidal rating CASOB (CASOB (Sicklepod) [1]; rate 0.0156 kg/ha): 1.0
Herbicidal rating CASOB (CASOB (Sicklepod) [1]; rate 0.0313 kg/ha): 1.0
Herbicidal rating CASOB (CASOB (Sicklepod) [1]; rate 0.0625 kg/ha): 7.0
Preemergence herbicidal rating CASOB (CASOB (Sicklepod) [2]; rate 0.0156 kg/ha): 0.0
Preemergence herbicidal rating CASOB (CASOB (Sicklepod) [2]; rate 0.0313 kg/ha): 1.0
Preemergence herbicidal rating CASOB (CASOB (Sicklepod) [2]; rate 0.0625 kg/ha): 1.0
Preemergence herbicidal rating CASOB (CASOB (Sicklepod) [2]; rate 0.2500 kg/ha): 0.0
Herbicidal rating IPOHE ([3]; rate 0.0156 kg/ha): 9.0
Herbicidal rating IPOHE ([3]; rate 0.0313 kg/ha): 9.0
Herbicidal rating IPOHE ([3]; rate 0.0625 kg/ha): 9.0
herbicidal effect rating, MOOVA (MOOVA (Monochoria); 0.0313 kg/ha): 6.0
herbicidal effect rating, MOOVA (MOOVA (Monochoria); 0.0625 kg/ha): 7.0
herbicidal effect rating, MOOVA (MOOVA (Monochoria); 0.1250 kg/ha): 9.0
herbicidal effect rating, MOOVA (MOOVA (Monochoria); 0.2500 kg/ha): 9.0
Preemergence herbicidal rating ABUTH (ABUTH (Velvetleaf); rate 0.0156 kg/ha): 0.0
Preemergence herbicidal rating ABUTH (ABUTH (Velvetleaf); rate 0.0313 kg/ha): 0.0
Preemergence herbicidal rating ABUTH (ABUTH (Velvetleaf); rate 0.0625 kg/ha): 1.0
Preemergence herbicidal rating ABUTH (ABUTH (Velvetleaf); rate 0.1250 kg/ha): 3.0
Preemergence herbicidal rating ABUTH (ABUTH (Velvetleaf); rate 0.2500 kg/ha): 9.0
Preemergence herbicidal rating IPOHE ([4]; rate 0.0156 kg/ha): 0.0
Preemergence herbicidal rating IPOHE ([4]; rate 0.0313 kg/ha): 0.0
Preemergence herbicidal rating IPOHE ([4]; rate 0.0625 kg/ha): 4.0
Preemergence herbicidal rating IPOHE ([4]; rate 0.1250 kg/ha): 9.0
Preemergence herbicidal rating IPOHE ([4]; rate 0.2500 kg/ha): 7.0
Preemergence herbicidal rating ECHCG (ECHCG (Barnyardgrass); rate 0.0156 kg/ha): 0.0
Preemergence herbicidal rating ECHCG (ECHCG (Barnyardgrass); rate 0.0313 kg/ha): 0.0
Preemergence herbicidal rating ECHCG (ECHCG (Barnyardgrass); rate 0.0625 kg/ha): 0.0
Preemergence herbicidal rating ECHCG (ECHCG (Barnyardgrass); rate 0.1250 kg/ha): 0.0
Preemergence herbicidal rating ECHCG (ECHCG (Barnyardgrass); rate 0.2500 kg/ha): 2.0
Preemergence herbicidal rating ZEAMX (ZEAMX (Corn, Field); rate 0.0156 kg/ha): 0.0
Preemergence herbicidal rating ZEAMX (ZEAMX (Corn, Field); rate 0.0313 kg/ha): 0.0
Preemergence herbicidal rating ZEAMX (ZEAMX (Corn, Field); rate 0.0625 kg/ha): 0.0
Preemergence herbicidal rating ZEAMX (ZEAMX (Corn, Field); rate 0.1250 kg/ha): 0.0
Preemergence herbicidal rating ZEAMX (ZEAMX (Corn, Field); rate 0.2500 kg/ha): 0.0
Preemergence herbicidal rating GLXMAW ([5]; rate 0.0156 kg/ha): 0.0
Preemergence herbicidal rating GLXMAW ([5]; rate 0.0313 kg/ha): 0.0
Preemergence herbicidal rating GLXMAW ([5]; rate 0.0625 kg/ha): 0.0
Preemergence herbicidal rating GLXMAW ([5]; rate 0.1250 kg/ha): 0.0
Preemergence herbicidal rating GLXMAW ([5]; rate 0.2500 kg/ha): 0.0
herbicidal effect rating, SAGPY ([6]; 0.0313 kg/ha): 0.0
herbicidal effect rating, SAGPY ([6]; 0.0625 kg/ha): 3.0
herbicidal effect rating, SAGPY ([6]; 0.1250 kg/ha): 4.0
herbicidal effect rating, SAGPY ([6]; 0.2500 kg/ha): 6.0
Herbicidal rating GALAP (GALAP (Galium); rate 0.0156 kg/ha): 1.0
Herbicidal rating GALAP (GALAP (Galium); rate 0.0313 kg/ha): 1.0
Herbicidal rating GALAP (GALAP (Galium); rate 0.0625 kg/ha): 3.0
Herbicidal rating AMBEL (AMBEL (Ragweed, Common); rate 0.0156 kg/ha): 7.0
Herbicidal rating AMBEL (AMBEL (Ragweed, Common); rate 0.0313 kg/ha): 9.0
Herbicidal rating AMBEL (AMBEL (Ragweed, Common); rate 0.0625 kg/ha): 9.0
Preemergence herbicidal rating TRZAWR ([7]; rate 0.0156 kg/ha): 0.0
Preemergence herbicidal rating TRZAWR ([7]; rate 0.0313 kg/ha): 0.0
Preemergence herbicidal rating TRZAWR ([7]; rate 0.0625 kg/ha): 0.0
Preemergence herbicidal rating TRZAWR ([7]; rate 0.1250 kg/ha): 0.0
Preemergence herbicidal rating TRZAWR ([7]; rate 0.2500 kg/ha): 0.0

CN(C)c1ccc(CN2C(=O)CSC2=Nc2cc(-n3c(=O)cc(C(F)(F)F)n(C)c3=O)c(F)cc2Cl)cc1 [Compound 138, 3-{4-Chloro-5-{{3-[p-(dimethylamino)benzyl]-4-oxo-2-thiazolidinylidene}amino}-2-fluorophenyl}-1-methyl-6-(trifluoromethyl)-2,4(1H,3H)-pyrimidinedione]
Herbicidal rating CASOB (CASOB (Sicklepod) [1]; rate 0.0156 kg/ha): 0.0
Herbicidal rating CASOB (CASOB (Sicklepod) [1]; rate 0.0313 kg/ha): 1.0
Herbicidal rating CASOB (CASOB (Sicklepod) [1]; rate 0.0625 kg/ha): 6.0
Preemergence herbicidal rating CASOB (CASOB (Sicklepod) [2]; [8]): 0.0
Preemergence herbicidal rating CASOB (CASOB (Sicklepod) [2]; [9]): 0.0
Preemergence herbicidal rating CASOB (CASOB (Sicklepod) [2]; [10]): 0.0
Preemergence herbicidal rating CASOB (CASOB (Sicklepod) [2]; [11]): 0.0
Preemergence herbicidal rating CASOB (CASOB (Sicklepod) [2]; [12]): 0.0
Herbicidal rating IPOHE ([3]; rate 0.0156 kg/ha): 9.0
Herbicidal rating IPOHE ([3]; rate 0.0313 kg/ha): 9.0
Herbicidal rating IPOHE ([3]; rate 0.0625 kg/ha): 9.0
herbicidal effect rating, MOOVA (MOOVA (Monochoria); 0.0313 kg/ha): 5.0
herbicidal effect rating, MOOVA (MOOVA (Monochoria); 0.0625 kg/ha): 6.0
herbicidal effect rating, MOOVA (MOOVA (Monochoria); 0.1250 kg/ha): 6.0
herbicidal effect rating, MOOVA (MOOVA (Monochoria); 0.2500 kg/ha): 7.0
Preemergence herbicidal rating ABUTH (ABUTH (Velvetleaf); [8]): 0.0
Preemergence herbicidal rating ABUTH (ABUTH (Velvetleaf); [9]): 0.0
Preemergence herbicidal rating ABUTH (ABUTH (Velvetleaf); [10]): 0.0
Preemergence herbicidal rating ABUTH (ABUTH (Velvetleaf); [11]): 9.0
Preemergence herbicidal rating ABUTH (ABUTH (Velvetleaf); [12]): 9.0
Preemergence herbicidal rating IPOHE [4, 8]: 0.0
Preemergence herbicidal rating IPOHE [4, 9]: 0.0
Preemergence herbicidal rating IPOHE [4, 10]: 0.0
Preemergence herbicidal rating IPOHE [4, 11]: 0.0
Preemergence herbicidal rating IPOHE [4, 12]: 0.0
Preemergence herbicidal rating ECHCG (ECHCG (Barnyardgrass); [8]): 0.0
Preemergence herbicidal rating ECHCG (ECHCG (Barnyardgrass); [9]): 0.0
Preemergence herbicidal rating ECHCG (ECHCG (Barnyardgrass); [10]): 0.0
Preemergence herbicidal rating ECHCG (ECHCG (Barnyardgrass); [11]): 0.0
Preemergence herbicidal rating ECHCG (ECHCG (Barnyardgrass); [12]): 0.0
Preemergence herbicidal rating ZEAMX (ZEAMX (Corn, Field); [8]): 0.0
Preemergence herbicidal rating ZEAMX (ZEAMX (Corn, Field); [9]): 0.0
Preemergence herbicidal rating ZEAMX (ZEAMX (Corn, Field); [10]): 0.0
Preemergence herbicidal rating ZEAMX (ZEAMX (Corn, Field); [11]): 0.0
Preemergence herbicidal rating ZEAMX (ZEAMX (Corn, Field); [12]): 0.0
Preemergence herbicidal rating GLXMAW [5, 8]: 0.0
Preemergence herbicidal rating GLXMAW [5, 9]: 0.0
Preemergence herbicidal rating GLXMAW [5, 10]: 0.0
Preemergence herbicidal rating GLXMAW [5, 11]: 0.0
Preemergence herbicidal rating GLXMAW [5, 12]: 1.0
herbicidal effect rating, SAGPY ([6]; 0.0313 kg/ha): 0.0
herbicidal effect rating, SAGPY ([6]; 0.0625 kg/ha): 0.0
herbicidal effect rating, SAGPY ([6]; 0.1250 kg/ha): 0.0
herbicidal effect rating, SAGPY ([6]; 0.2500 kg/ha): 3.0
Herbicidal rating GALAP (GALAP (Galium); rate 0.0156 kg/ha): 0.0
Herbicidal rating GALAP (GALAP (Galium); rate 0.0313 kg/ha): 2.0
Herbicidal rating GALAP (GALAP (Galium); rate 0.0625 kg/ha): 2.0
Herbicidal rating AMBEL (AMBEL (Ragweed, Common); rate 0.0156 kg/ha): 9.0
Herbicidal rating AMBEL (AMBEL (Ragweed, Common); rate 0.0313 kg/ha): 9.0
Herbicidal rating AMBEL (AMBEL (Ragweed, Common); rate 0.0625 kg/ha): 9.0
Preemergence herbicidal rating TRZAWR [7, 8]: 0.0
Preemergence herbicidal rating TRZAWR [7, 9]: 0.0
Preemergence herbicidal rating TRZAWR [7, 10]: 0.0
Preemergence herbicidal rating TRZAWR [7, 11]: 0.0
Preemergence herbicidal rating TRZAWR [7, 12]: 0.0
